{"source": "patent US5924973A", "about": "“Method of treating a disease process in a luminal structure” (The Trustees of Columbia University in the City of New York, priority 1996, dated 1999)", "key": {"[1]": {"test": "Biodistribution of 99mTc-MAG3 and 188Re-MAG3 in a dual label study, tail vein injection", "type": "in vivo, rats", "details": "± standard deviation", "text": "Biodistribution Data for ^99m Tc-MAG3 and ^188 Re-MAG3 in a dual label study"}, "[2]": {"test": "Dual label excretion studies of 188Re-MAG3 and 99mTc-MAG3 in rats (urine, feces)", "type": "in vivo", "details": "simultaneously injected in rats", "text": "Comparison of the Excretion of ^188 Re-MAG3 with ^99 mTc-MAG3 in rats\nDual Label Excretion Studies of ^188 Re-MAG3 and ^99m Tc-MAG3 in Rats"}}, "data": [{"molecule": "O=C(O)C[N]1C(=O)C[N]2C(=O)C[N]3C(=O)C[S][99Tc-]132=[O]", "note": "[^99m Tc-MAG3, reference compound]", "values": [{"measurement": "Biodistribution Data for ^99m Tc-MAG3, blood", "setting": "[1]; 2 h", "value": "0.18 ± 0.02", "unit": "% inj. dose/g tissue"}, {"measurement": "Biodistribution Data for ^99m Tc-MAG3, blood", "setting": "[1]; 6 h", "value": "0.13 ± 0.00", "unit": "% inj. dose/g tissue"}, {"measurement": "Biodistribution Data for ^99m Tc-MAG3, blood", "setting": "[1]; 24 h", "value": "0.05 ± 0.00", "unit": "% inj. dose/g tissue"}, {"measurement": "Biodistribution Data for ^99m Tc-MAG3, bone", "setting": "[1]; 2 h", "value": "0.05 ± 0.02", "unit": "% inj. dose/g tissue"}, {"measurement": "Biodistribution Data for ^99m Tc-MAG3, bone", "setting": "[1]; 6 h", "value": "0.03 ± 0.03", "unit": "% inj. dose/g tissue"}, {"measurement": "Biodistribution Data for ^99m Tc-MAG3, bone", "setting": "[1]; 24 h", "value": "0.02 ± 0.01", "unit": "% inj. dose/g tissue"}, {"measurement": "Biodistribution Data for ^99m Tc-MAG3, contents of l.i.", "setting": "[1]; 2 h", "value": "0.72 ± 0.18", "unit": "% inj. dose/g tissue"}, {"measurement": "Biodistribution Data for ^99m Tc-MAG3, contents of l.i.", "setting": "[1]; 6 h", "value": "1.16 ± 0.23", "unit": "% inj. dose/g tissue"}, {"measurement": "Biodistribution Data for ^99m Tc-MAG3, contents of l.i.", "setting": "[1]; 24 h", "value": "0.05 ± 0.01", "unit": "% inj. dose/g tissue"}, {"measurement": "Biodistribution Data for ^99m Tc-MAG3, contents of s.i.", "setting": "[1]; 2 h", "value": "1.84 ± 2.27", "unit": "% inj. dose/g tissue"}, {"measurement": "Biodistribution Data for ^99m Tc-MAG3, contents of s.i.", "setting": "[1]; 6 h", "value": "0.08 ± 0.03", "unit": "% inj. dose/g tissue"}, {"measurement": "Biodistribution Data for ^99m Tc-MAG3, contents of s.i.", "setting": "[1]; 24 h", "value": "0.02 ± 0.01", "unit": "% inj. dose/g tissue"}, {"measurement": "Biodistribution Data for ^99m Tc-MAG3, heart", "setting": "[1]; 2 h", "value": "0.09 ± 0.02", "unit": "% inj. dose/g tissue"}, {"measurement": "Biodistribution Data for ^99m Tc-MAG3, heart", "setting": "[1]; 6 h", "value": "0.08 ± 0.01", "unit": "% inj. dose/g tissue"}, {"measurement": "Biodistribution Data for ^99m Tc-MAG3, heart", "setting": "[1]; 24 h", "value": "0.04 ± 0.00", "unit": "% inj. dose/g tissue"}, {"measurement": "Biodistribution Data for ^99m Tc-MAG3, kidneys", "setting": "[1]; 2 h", "value": "0.61 ± 0.11", "unit": "% inj. dose/g tissue"}, {"measurement": "Biodistribution Data for ^99m Tc-MAG3, kidneys", "setting": "[1]; 6 h", "value": "0.43 ± 0.09", "unit": "% inj. dose/g tissue"}, {"measurement": "Biodistribution Data for ^99m Tc-MAG3, kidneys", "setting": "[1]; 24 h", "value": "0.40 ± 0.11", "unit": "% inj. dose/g tissue"}, {"measurement": "Biodistribution Data for ^99m Tc-MAG3, large intestine", "setting": "[1]; 2 h", "value": "0.14 ± 0.02", "unit": "% inj. dose/g tissue"}, {"measurement": "Biodistribution Data for ^99m Tc-MAG3, large intestine", "setting": "[1]; 6 h", "value": "0.18 ± 0.00", "unit": "% inj. dose/g tissue"}, {"measurement": "Biodistribution Data for ^99m Tc-MAG3, large intestine", "setting": "[1]; 24 h", "value": "0.06 ± 0.00", "unit": "% inj. dose/g tissue"}, {"measurement": "Biodistribution Data for ^99m Tc-MAG3, liver", "setting": "[1]; 2 h", "value": "0.15 ± 0.02", "unit": "% inj. dose/g tissue"}, {"measurement": "Biodistribution Data for ^99m Tc-MAG3, liver", "setting": "[1]; 6 h", "value": "0.15 ± 0.00", "unit": "% inj. dose/g tissue"}, {"measurement": "Biodistribution Data for ^99m Tc-MAG3, liver", "setting": "[1]; 24 h", "value": "0.11 ± 0.01", "unit": "% inj. dose/g tissue"}, {"measurement": "Biodistribution Data for ^99m Tc-MAG3, lung", "setting": "[1]; 2 h", "value": "0.15 ± 0.04", "unit": "% inj. dose/g tissue"}, {"measurement": "Biodistribution Data for ^99m Tc-MAG3, lung", "setting": "[1]; 6 h", "value": "0.07 ± 0.02", "unit": "% inj. dose/g tissue"}, {"measurement": "Biodistribution Data for ^99m Tc-MAG3, lung", "setting": "[1]; 24 h", "value": "0.04 ± 0.03", "unit": "% inj. dose/g tissue"}, {"measurement": "Biodistribution Data for ^99m Tc-MAG3, small intestine", "setting": "[1]; 2 h", "value": "0.12 ± 0.04", "unit": "% inj. dose/g tissue"}, {"measurement": "Biodistribution Data for ^99m Tc-MAG3, small intestine", "setting": "[1]; 6 h", "value": "0.07 ± 0.01", "unit": "% inj. dose/g tissue"}, {"measurement": "Biodistribution Data for ^99m Tc-MAG3, small intestine", "setting": "[1]; 24 h", "value": "0.03 ± 0.00", "unit": "% inj. dose/g tissue"}, {"measurement": "Biodistribution Data for ^99m Tc-MAG3, spleen", "setting": "[1]; 2 h", "value": "0.06 ± 0.02", "unit": "% inj. dose/g tissue"}, {"measurement": "Biodistribution Data for ^99m Tc-MAG3, spleen", "setting": "[1]; 6 h", "value": "0.07 ± 0.01", "unit": "% inj. dose/g tissue"}, {"measurement": "Biodistribution Data for ^99m Tc-MAG3, spleen", "setting": "[1]; 24 h", "value": "0.06 ± 0.00", "unit": "% inj. dose/g tissue"}, {"measurement": "Biodistribution Data for ^99m Tc-MAG3, thyroid", "setting": "[1]; 2 h", "value": "2.41 ± 0.95", "unit": "% inj. dose/g tissue"}, {"measurement": "Biodistribution Data for ^99m Tc-MAG3, thyroid", "setting": "[1]; 6 h", "value": "2.43 ± 0.24", "unit": "% inj. dose/g tissue"}, {"measurement": "Biodistribution Data for ^99m Tc-MAG3, thyroid", "setting": "[1]; 24 h", "value": "0.76 ± 0.59", "unit": "% inj. dose/g tissue"}, {"measurement": "distribution and elimination, 99mTc-MAG3 versus 188Re-MAG3", "setting": "[2]", "value": "identical"}]}]}
